Where two headings read alike, the source gives them in different places.
Key:
[1] = test system: HCoV‐OC43; test: microbe, parasite or virus in culture; format: cell-based; settings: Betacoronavirus 1, MRC5, read-out: EC50 ± SD, HCoV‐OC43
[2] = test system: MERS‐CoV; test: microbe, parasite or virus in culture; format: cell-based
[3] = target: T1, SARS‐CoV‐2 M^pro (Severe acute respiratory syndrome coronavirus 2, UniProt P0DTD1); test: biochemical; settings: reported K M value and Cheng‐Prusoff equation
[4] = test system: Kunming mice; test: Subacute toxicity experiment; format: in vivo
Procedure: (§1) The acute and subacute toxicity of C5N17B were assessed in Kunming mice. In the acute toxicity study, one group received an oral dose of 500 mg kg^−1 of C5N17B. In the subacute toxicity study, a different group was administered a lower dose of 50 mg kg^−1 of C5N17B. Each experimental set included a control group that received only the vehicle treatment.
(§2) Kunming mice were group housed both during acclimation and the study period. The animal room environment was controlled to maintain specific target conditions, including a temperature range of 20 °C to 25 °C, relative humidity levels between 40% and 70%, and an alternating schedule of artificial light for 12 h followed by 12 h of darkness. The age of Kunming mice in the acute/subacute toxicity study was 3–4 weeks, and the body weights were ≈20 g. All animal experiments related to this study were approved by the ethics committee of Cheeloo College of Medicine (approval No. 230014), Shandong University (Jinan, China) Procedures performed in the studies were guided by the ethical standards of the institution.
A group of Kunming mice (comprising three males and three females) was supplied by the Animal Experimental Center of Shandong University. The mice underwent a 12 h fasting period, followed by oral administration of a suspension containing C5N17B in 0.5% CMC‐Na and 3% DMSO at the concentration of 100 mg mL^−1 to achieve an acute toxicity dose of 500 mg kg^−1. In the subacute toxicity experiment, the test group received 50 mg kg^−1 of C5N17B orally, with another group serving as a control. The experimental group and control group each consist of six mice, with an equal distribution of three males and three females.

[5] = test system: SARS‐CoV‐2 Omicron (hCoV‐19/Korea/KDCA447321/2021); test: microbe, parasite or virus in culture; format: cell-based; settings: Severe acute respiratory syndrome coronavirus 2, Calu-3, read-out: EC50 ± SD, SARS‐CoV‐2 Omicron
[6] = in vitro; settings: rhesus monkey
[7] = test system: HCoV‐NL63; test: microbe, parasite or virus in culture; format: cell-based; settings: Human coronavirus NL63, LLC-MK2, read-out: EC50 ± SD, HCoV‐NL63
[8] = test system: HCoV‐229E; test: microbe, parasite or virus in culture; format: cell-based
[9] = test system: SARS‐CoV‐2 viral RNA; format: cell-based
[10] = in vivo; settings: ICR, mouse, po
[11] = Cytotoxicity assay (MTT) in MRC‐5 cells; settings: human
[12] = target: T1, SARS‐CoV‐2 M^pro; test: SARS‐CoV‐2 main protease enzymatic assay (FRET inhibitor screening kit); format: biochemical
[13] = test system: SARS‐CoV‐2 Gamma (hCoV‐19/Korea/KDCA95637/2021); test: microbe, parasite or virus in culture; format: cell-based; settings: Severe acute respiratory syndrome coronavirus 2; Calu‐3; read-out: EC50 ± SD, SARS‐CoV‐2 Gamma
[14] = test system: SARS‐CoV‐2 (hCoV‐19/Korea/KCDC06/2020, wild type); test: microbe, parasite or virus in culture; format: cell-based
[15] = test system: SARS‐CoV‐2 S and N proteins; format: cell-based
[16] = test system: Kunming mice; test: Acute toxicity experiment; format: in vivo
Procedure: as §1, §2
A group of Kunming mice (comprising three males and three females) was supplied by the Animal Experimental Center of Shandong University. […]

[17] = test system: SARS‐CoV‐2 Delta (hCoV‐19/Korea/KDCA119861/2021); test: microbe, parasite or virus in culture; format: cell-based; settings: Severe acute respiratory syndrome coronavirus 2; Calu‐3; read-out: EC50 ± SD, SARS‐CoV‐2 Delta
[18] = 10 mg/kg, p.o. in combination with ritonavir, p.o. 10 mg kg^−1 with 20 mg kg^−1 ritonavir, ICR mice, n = 3
[19] = male, 10 mg/kg, Mean, C5N17B+Ritonavir, PO 10 mg/kg, mean of 3 mice
[20] = male, 10 mg/kg, Plasma concentration (Calculated Concentration), C5N17B+Ritonavir, PO 10 mg/kg, mouse plasma, individual mice
[21] = male, 10 mg/kg, Plasma concentration, Mean, C5N17B+Ritonavir, PO 10 mg/kg, mean of mice 1#-3#

## Cc1cncc(C(=O)N2C[C@H]3CC[C@@H](C2)N3[C@H](c2cccc(F)c2)c2cn(CCc3ccsc3)nn2)c1 [Compound C5N17B]
[1]
  EC50: 2710 ± 510 nM
[2]
  EC50 ± SD, MERS‐CoV: failed to inhibit
[2]; Middle East respiratory syndrome-related coronavirus, Huh-7, read-out: EC50 ± SD, MERS‐CoV
  EC50: > 100000 nM
[3]
  Ki: 26.6 nM
[4]; 50 mg kg^−1, 15 days
  body weight compared to the control group, subacute toxicity: no significant changes in body weight
[4]; heart, liver, spleen, lung, kidney, subacute toxicity study
  examination of vital organs, hematoxylin and eosin‐stained slices: no significant pathological abnormalities
[4]; oral 50 mg kg^−1, Kunming mice
  fatalities or abnormal behavior, subacute toxicity: No fatalities or abnormal behavior
[5]
  EC50: 135 ± 3 nM
[6]
  CC50: > 100000 nM
[7]
  EC50: > 100000 nM
[8]; Human coronavirus 229E, MRC5, read-out: EC50 ± SD, HCoV‐229E
  EC50: > 100000 nM
[8]; MRC‐5
  EC50 ± SD, HCoV‐229E: failed to inhibit
[9]
  reduction in viral RNA: exceeded 3 log orders
[9]; 0.041 µM
  decrease in viral RNA copy number compared to 10.0 µM nirmatrelvir: 20 fold
[10]; [18]
  Cmax: 2300 ± 162 ng/mL
  Tmax: 2.08 ± 1.88 h
[10]; 10 mg/kg, MRT0‐t, p.o. in combination with ritonavir, p.o. 10 mg kg^−1 with 20 mg kg^−1 ritonavir, ICR mice, n = 3
  MRT: 3.15 ± 0.456 h
[10]; 10 mg/kg, MRT0‐∞, p.o. in combination with ritonavir, p.o. 10 mg kg^−1 with 20 mg kg^−1 ritonavir, ICR mice, n = 3
  MRT: 4.88 ± 2.7 h
[10]; 10 mg/kg, t1/2, p.o. in combination with ritonavir, p.o. 10 mg kg^−1 with 20 mg kg^−1 ritonavir, ICR mice, n = 3
  half-life: 3.14 ± 2.06 h
[10]; AUC0‐t, p.o. in combination with ritonavir, p.o. 10 mg kg^−1 with 20 mg kg^−1 ritonavir, ICR mice, n = 3
  AUC: 11500 ng·h/mL
[10]; male, 10 mg/kg, AUC0-t, C5N17B+Ritonavir, PO 10 mg/kg, individual mice 1#-3#
  AUC(0-t): 9690 ng·h/mL
[10]; male, 10 mg/kg, AUC0-t, Mean, C5N17B+Ritonavir, PO 10 mg/kg, mean of 3 mice
  AUC(0-t): 11500 ng·h/mL
[10]; male, 10 mg/kg, AUC0-∞, C5N17B+Ritonavir, PO 10 mg/kg, individual mice 1#-3#
  AUC(0-inf): 10400 ng·h/mL
[10]; male, 10 mg/kg, AUC0-∞, Mean, C5N17B+Ritonavir, PO 10 mg/kg, mean of 3 mice
  AUC(0-inf): 14200 ng·h/mL
[10]; male, 10 mg/kg, AUCINF_obs, C5N17B+Ritonavir, po 10 mg/kg, non-compartmental output, individual mice
  AUC(0-inf): 10400 ng·h/mL
[10]; male, 10 mg/kg, AUCINF_pred, C5N17B+Ritonavir, po 10 mg/kg, based on predicted Clast, individual mice
  AUC(0-inf): 10800 ng·h/mL
[10]; male, 10 mg/kg, AUCall, C5N17B+Ritonavir, po 10 mg/kg, non-compartmental output, individual mice
  AUC: 9690 ng·h/mL
[10]; male, 10 mg/kg, AUClast, C5N17B+Ritonavir, po 10 mg/kg, non-compartmental output, individual mice
  AUC(0-t): 9690 ng·h/mL
[10]; male, 10 mg/kg, Cl_F_obs, C5N17B+Ritonavir, po 10 mg/kg, non-compartmental output, individual mice
  CL/F: 16 mL/min/kg
[10]; male, 10 mg/kg, C5N17B+Ritonavir, PO 10 mg/kg, individual mice 1#-3#
  Cmax: 2270 ng/mL
[10]; male, 10 mg/kg, C5N17B+Ritonavir, po 10 mg/kg, non-compartmental output, individual mice
  Cmax: 2270 ng/mL
[10]; [19]
  Cmax: 2300 ng/mL
  Tmax: 2.08 h
[10]; male, 10 mg/kg, MRT0-t, C5N17B+Ritonavir, PO 10 mg/kg, individual mice 1#-3#
  MRT last: 2.62 h
[10]; male, 10 mg/kg, MRT0-t, Mean, C5N17B+Ritonavir, PO 10 mg/kg, mean of 3 mice
  MRT last: 3.15 h
[10]; male, 10 mg/kg, MRT0-∞, Mean, C5N17B+Ritonavir, PO 10 mg/kg, mean of 3 mice
  MRT inf: 4.88 h
[10]; male, 10 mg/kg, MRTlast, C5N17B+Ritonavir, po 10 mg/kg, non-compartmental output, individual mice
  MRT last: 2.62 h
[10]; male, 10 mg/kg, Plasma concentration (Calculated Concentration), C5N17B+Ritonavir, PO 10 mg/kg, mouse plasma, 5 min (5min), individual mice
  concentration at 5 min: 680 ng/mL
[10]; male, 10 mg/kg, Plasma concentration (Calculated Concentration), C5N17B+Ritonavir, PO 10 mg/kg, mouse plasma, 0.5 h (30min), individual mice
  concentration at 0.5 h: 2280 ng/mL
[10]; [20]
  concentration at 1 h: 2210 ng/mL
  concentration at 2 h: 1910 ng/mL
  concentration at 4 h: 1180 ng/mL
[10]; male, 10 mg/kg, Plasma concentration, Mean, C5N17B+Ritonavir, PO 10 mg/kg, 5 min, mean of mice 1#-3#
  concentration at 5 min: 660 ng/mL
[10]; male, 10 mg/kg, Plasma concentration, Mean, C5N17B+Ritonavir, PO 10 mg/kg, 0.50 h, mean of mice 1#-3#
  concentration at 0.5 h: 1740 ng/mL
[10]; [21]
  concentration at 1 h: 1970 ng/mL
  concentration at 2 h: 2110 ng/mL
  concentration at 4 h: 1750 ng/mL
[10]; male, 10 mg/kg, Plasma concentration, Mean, C5N17B+Ritonavir, PO 10 mg/kg, 6 h, mean of mice 1#-3#
  concentration at 6 h: 1040 ng/mL
[10]; male, 10 mg/kg, Plasma concentration, Mean, C5N17B+Ritonavir, PO 10 mg/kg, 8 h, mean (1# BQL)
  concentration at 8 h: 490 ng/mL
[10]; male, 10 mg/kg, T1/2, Mean, C5N17B+Ritonavir, PO 10 mg/kg, mean of 3 mice
  half-life: 3.14 h
[11]
  CC50 at 5 day: > 100000 nM
  CC50 at 6 day: > 100000 nM
[12]
  IC50: 120 nM
[12]; 5 μM, read-out: Inhibitionrate at @5μM
  inhibition at 5 µM: 99.6%
[12]; IC50 ratio
  fold stronger enzyme inhibitory activity than C5N17A: 27 fold
[13]
  EC50: 260 ± 13 nM
[14]; Severe acute respiratory syndrome coronavirus 2, Calu-3, Calu‐3, read-out: EC50 ± SD, SARS‐CoV‐2 Wild‐type
  EC50: 119 ± 11 nM
[14]; Severe acute respiratory syndrome coronavirus 2, Calu-3, Calu‐3 cells, racemate, enantiomers and […] measured in the same system, read-out: EC50, anti‐SARS‐CoV‐2 activity in Calu‐3 cells (Figure 3B)
  EC50: 78 nM
[15]
  SARS‐CoV‐2 S and N proteins in virus‐infected cells: dose‐dependent reduction
[16]; 500 mg kg^−1, 7 days
  body weight compared to the control group, acute toxicity: no significant changes in body weight
[16]; oral dose of 500 mg kg^−1, Kunming mice
  fatalities or abnormal behavior, acute toxicity: No fatalities or abnormal behavior
[17]
  EC50: 154 ± 19 nM
